Assay results published in patent US20250295798A1, “LIGAND-DRUG CONJUGATE OF EXATECAN ANALOGUE, AND MEDICAL USE THEREOF” (BeiGene Switzerland GmbH, priority 2022, published 2025).
pEC50: −log10 of the molar value.

Columns and labels:
[1] = test system: A375; assay: Compounds cellular killing in A375; format: cell-based, human; conditions: Homo sapiens, A375, 6 days, Cell Titer-Glo
Procedure: (§1) Seeding cells A375 (1E3/well) or Calu-6 (2E3/well) into 96-well plate (Greiner: 655090), 100 ul/well. Incubation at 37° C., 5% CO2, overnight.
(§2) Adding the fresh growth-medium containing the varying concentrations of compounds, 50 ul/well.
(§3) Incubation at 37° C., 5% CO2, 6 days.
(§4) The cell viability detected by Cell Titer-Glo (Promega, G7573). Add 70 µL/well of CellTiter-Glo® Reagent in each well.
(§5) Allow the plates to incubate at room temperature for 10 minutes to stabilize luminescent signal.
(§6) Analyze with Microplate Reader.
(§7) Seeding cells A375 ([…] or Calu-6 (2E3/well) into 96-well plate (Greiner: 655090), 100 ul/well. Incubation at 37° C., […], overnight.

[2] = test system: Calu-6; assay: Compounds cellular killing in Calu-6; format: cell-based, human; conditions: Homo sapiens, Calu-6, 6 days, Cell Titer-Glo
Procedure: as §1, §2, §3, §4, §5, §6, §7

Row | SMILES | pEC50 ([1]; A-375, […]) | Emax ([1]; A-375, […]) | pEC50 ([2]; Calu-6, […]) | Emax ([2]; Calu-6, […]) | pEC50 ([1]; A-375) | Emax ([1]; A-375) | pEC50 [2]
1 | CC[C@@]1(O)C(=O)OCc2c1cc1n(c2=O)Cc2c-1nc1cc(F)c(C)c3c1c2[C@@H](NC(=O)C(F)(F)CO)CC3 [Example 2-3, N-((1S,9S)-9-ethyl-5-fluoro-9-hydroxy-4-methyl-10,13-dioxo-2,3,9,10,13,15-hexahydro-1H,12H-benzo[de]pyrano[3′,4′:6,7]indolizino[1,2-b]quinolin-1-yl)-2,2-difluoro-3-hydroxypropanamide] | 8.68 | 100% | 9.10 | 98.5% |  |  | 
2 | CC[C@@]1(O)C(=O)OCc2c1cc1n(c2=O)Cc2c-1nc1cc(F)c(OC)c3c1c2[C@@H](NC(=O)CO)CC3 [Example 2-4, N-((1S,9S)-9-ethyl-5-fluoro-9-hydroxy-4-methoxy-10,13-dioxo-2,3,9,10,13,15-hexahydro-1H,12H-benzo[de]pyrano[3′,4′:6,7]indolizino[1,2-b]quinolin-1-yl)-2-hydroxyacetamide] | 7.74 | 99.3% | 8.31 | 99.7% |  |  | 
3 | CC[C@@]1(O)C(=O)OCc2c1cc1n(c2=O)Cc2c-1nc1cc(F)c(C)c3c1c2[C@@H](N(C)CCO)CC3 [Example 2-5, (1S,9S)-9-ethyl-5-fluoro-9-hydroxy-1-((2-hydroxyethyl)(methyl)amino)-4-methyl-1,2,3,9,12,15-hexahydro-10H,13H-benzo[de]pyrano[3′,4′:6,7]indolizino[1,2-b]quinoline-10,13-dione] |  |  |  | 98.9% | 9.05 | 98.8% | 9.52
4 | CC[C@@]1(O)C(=O)OCc2c1cc1n(c2=O)Cc2c-1nc1cc(F)c(C)c3c1c2[C@@H](NC(=O)OCCO)CC3 [Example 2-6, 2-hydroxyethyl ((1S,9S)-9-ethyl-5-fluoro-9-hydroxy-4-methyl-10,13-dioxo-2,3,9,10,13,15-hexahydro-1H,12H-benzo[de]pyrano[3′,4′:6,7]indolizino[1,2-b]quinolin-1-yl)carbamate] |  |  |  | 96.9% | 8.85 | 99.9% | 9.52
5 | CC[C@@]1(O)C(=O)OCc2c1cc1n(c2=O)Cc2c-1nc1cc(Cl)c(C)c3c1c2[C@@H](NC(=O)CO)CC3 [Example 2-7, N-((1S,9S)-5-chloro-9-ethyl-9-hydroxy-4-methyl-10,13-dioxo-2,3,9,10,13,15-hexahydro-1H,12H-benzo[de]pyrano[3′,4′:6,7]indolizino[1,2-b]quinolin-1-yl)-2-hydroxyacetamide] | 8.70 | 99.1% | 9.15 | 99.1% |  |  | 
6 | CC[C@@]1(O)C(=O)OCc2c1cc1n(c2=O)Cc2c-1nc1cc(Cl)c(C)c3c1c2[C@@H](NC(=O)C(C)(C)CO)CC3 [Example 2-8, N-((1S,9S)-5-chloro-9-ethyl-9-hydroxy-4-methyl-10,13-dioxo-2,3,9,10,13,15-hexahydro-1H,12H-benzo[de]pyrano[3′,4′:6,7]indolizino[1,2-b]quinolin-1-yl)-3-hydroxy-2,2-dimethylpropanamide] | 8.92 | 98.6% | 9.40 | 99.3% |  |  | 
7 | CC[C@@]1(O)C(=O)OCc2c1cc1n(c2=O)Cc2c-1nc1cc3c(c4c1c2[C@@H](NC(=O)CO)CC4)OCO3 [Example 2-11, N-((1S,10S)-10-ethyl-10-hydroxy-11,14-dioxo-2,3,10,11,14,16-hexahydro-1H,13H-benzo[de][1,3]dioxolo[4,5-g]pyrano[3′,4′:6,7]indolizino[1,2-b]quinolin-1-yl)-2-hydroxyacetamide] |  |  |  | 99.6% | 7.99 | 99.7% | 8.49
8 | CC[C@@]1(O)C(=O)OCc2c1cc1n(c2=O)Cc2c-1nc1cc(Cl)cc3c1c2[C@@H](NC(=O)CO)CC3 [Example 2-12, N-((1S,9S)-5-chloro-9-ethyl-9-hydroxy-10,13-dioxo-2,3,9,10,13,15-hexahydro-1H,12H-benzo[de]pyrano[3′,4′:6,7]indolizino[1,2-b]quinolin-1-yl)-2-hydroxyacetamide] | 8.17 | 99.9% | 8.36 | 98.9% |  |  | 
9 | CC[C@@]1(O)C(=O)OCc2c1cc1n(c2=O)Cc2c-1nc1cc(Cl)cc3c1c2[C@H](NC(=O)CO)CC3 [Example 2-13, N-((1R,9S)-5-chloro-9-ethyl-9-hydroxy-10,13-dioxo-2,3,9,10,13,15-hexahydro-1H,12H-benzo[de]pyrano[3′,4′:6,7]indolizino[1,2-b]quinolin-1-yl)-2-hydroxyacetamide] | 8.10 | 99.6% | 8.24 | 98.4% |  |  | 
10 | CC[C@@]1(O)C(=O)OCc2c1cc1n(c2=O)Cc2c-1nc1cc(F)c(C)c3c1c2C(CCCO)CC3 (stereo partly drawn) [Example 2-14, (9S)-9-ethyl-5-fluoro-9-hydroxy-1-(3-hydroxypropyl)-4-methyl-1,2,3,9,12,15-hexahydro-10H,13H-benzo[de]pyrano[3′,4′:6,7]indolizino[1,2-b]quinoline-10,13-dione] |  |  |  | 99% | 9.52 | 100% | 10.00
11 | CC[C@@]1(O)C(=O)OCc2c1cc1n(c2=O)Cc2c-1nc1cc(F)c(C)c3c1c2[C@@H](NC(=O)C[C@@H](O)C[N+](C)(C)C)CC3 [Example 2-15, (R)-4-(((1S,9S)-9-ethyl-5-fluoro-9-hydroxy-4-methyl-10,13-dioxo-2,3,9,10,13,15-hexahydro-1H,12H-benzo[de]pyrano[3′,4′:6,7]indolizino[1,2-b]quinolin-1-yl)amino)-2-hydroxy-N,N,N-trimethyl-4-oxobutan-1-aminium] | 6.36 | 73.5% | 6.75 | 90.1% |  |  | 
12 | CC[C@@]1(O)C(=O)OCc2c1cc1n(c2=O)Cc2c-1nc1cc(F)c(C)c3c1c2[C@@H](NC(=O)CC(O)C[N+](C)(C)C)CC3 (stereo partly drawn) [Example 2-16, 4-(((1S,9S)-9-ethyl-5-fluoro-9-hydroxy-4-methyl-10,13-dioxo-2,3,9,10,13,15-hexahydro-1H,12H-benzo[de]pyrano[3′,4′:6,7]indolizino[1,2-b]quinolin-1-yl)amino)-2-hydroxy-N,N,N-trimethyl-4-oxobutan-1-aminium] | 6.31 | 77.1% | 6.61 | 87.9% |  |  | 
13 | CC[C@@]1(O)C(=O)OCc2c1cc1n(c2=O)Cc2c-1nc1cc(F)c(C)c3c1c2[C@@H](NC(=O)[C@@H]1C[C@@H](O)CN1C(C)=O)CC3 [Example 2-17, (2S,4R)-1-acetyl-N-((1S,9S)-9-ethyl-5-fluoro-9-hydroxy-4-methyl-10,13-dioxo-2,3,9,10,13,15-hexahydro-1H,12H-benzo[de]pyrano[3′,4′:6,7]indolizino[1,2-b]quinolin-1-yl)-4-hydroxypyrrolidine-2-carboxamide] | 6.91 | 94.9% | 7.35 | 94.6% |  |  | 
14 | CC[C@@]1(O)C(=O)OCc2c1cc1n(c2=O)Cc2c-1nc1cc(F)c(C)c3c1c2[C@@H](NC(=O)c1ccc(CO)o1)CC3 [Example 2-19, N-((1S,9S)-9-ethyl-5-fluoro-9-hydroxy-4-methyl-10,13-dioxo-2,3,9,10,13,15-hexahydro-1H,12H-benzo[de]pyrano[3′,4′:6,7]indolizino[1,2-b]quinolin-1-yl)-5-(hydroxymethyl)furan-2-carboxamide] |  |  |  | 99.3% | 8.34 | 99.7% | 9.00
15 | CC[C@@]1(O)C(=O)OCc2c1cc1n(c2=O)Cc2c-1nc1cc(F)c(C)c3c1c2[C@@H](NC(=O)C[C@H](O)CC#N)CC3 [Example 2-20, (R)-4-cyano-N-((1S,9S)-9-ethyl-5-fluoro-9-hydroxy-4-methyl-10,13-dioxo-2,3,9,10,13,15-hexahydro-1H,12H-benzo[de]pyrano[3′,4′:6,7]indolizino[1,2-b]quinolin-1-yl)-3-hydroxybutanamide] | 7.73 | 98% | 8.25 | 98.1% |  |  | 
16 | CC[C@@]1(O)C(=O)OCc2c1cc1n(c2=O)Cc2c-1nc1cc(F)c(C)c3c1c2[C@@H](NC(=O)C(O)(C(F)(F)F)C(F)(F)F)CC3 [Example 2-21, N-((1S,9S)-9-ethyl-5-fluoro-9-hydroxy-4-methyl-10,13-dioxo-2,3,9,10,13,15-hexahydro-1H,12H-benzo[de]pyrano[3′,4′:6,7]indolizino[1,2-b]quinolin-1-yl)-3,3,3-trifluoro-2-hydroxy-2-(trifluoromethyl)propenamide] | 8.35 | 98.3% | 9.40 | 96.7% |  |  | 
17 | CC[C@@]1(O)C(=O)OCc2c1cc1n(c2=O)Cc2c-1nc1cc(F)c(C)c3c1c2[C@@H](n1cc(CO)nn1)CC3 [Example 2-22, (1S,9S)-9-ethyl-5-fluoro-9-hydroxy-1-(4-(hydroxymethyl)-1H-1,2,3-triazol-1-yl)-4-methyl-1,2,3,9,12,15-hexahydro-10H,13H-benzo[de]pyrano[3′,4′:6,7]indolizino[1,2-b]quinoline-10,13-dione] | 7.98 | 97.7% | 8.25 | 98% |  |  | 
18 | CC[C@@]1(O)C(=O)OCc2c1cc1n(c2=O)Cc2c-1nc1cc(F)c(C)c3c1c2[C@@H](n1cc(CCO)nn1)CC3 [Example 2-23, (1S,9S)-9-ethyl-5-fluoro-9-hydroxy-1-(4-(2-hydroxyethyl)-1H-1,2,3-triazol-1-yl)-4-methyl-1,2,3,9,12,15-hexahydro-10H,13H-benzo[de]pyrano[3′,4′:6,7]indolizino[1,2-b]quinoline-10,13-dione] | 8.48 | 99.9% | 8.72 | 98.9% |  |  | 
